Experimental data as given in patent publication US20250313563A1, “GLYCOGEN SYNTHASE KINASE 3 INHIBITORS AND USES THEREOF” (The Broad Institute, Inc., priority 2022, published 2025).
Like-named read-outs stand apart in the source and are kept apart here.

Tests used:
[1] = biological target: GSK3b (GST-full length GSK3b) (Homo sapiens (Human), UniProt P49841); test: GSK3b TR-FRET kinase assay; assay type: biochemical
Summary of the method: (§1)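 Compound preincubated 30 min, then 1 nM GST-full-length GSK3α or GSK3b run 100 min at ambient temperature with 200 nM biotinylated, S645-prephosphorylated glycogen synthase 631-650 peptide in Tris pH 7.5, MgCl2, DTT, BSA, 1% DMSO. ATP 4 μM (α) or 2 μM (β), or 1 mM. EDTA-quenched; Tb-anti-pSer641/streptavidin-d2 TR-FRET 665/615 ratio gave IC50.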

[2] = biological target: GSK3α (GST-full length GSK3α) (Homo sapiens (Human), UniProt P49840); test: GSK3α TR-FRET kinase assay; assay type: biochemical
Summary of the method: as §1

[3] = 1 nM GSK3b, 2 μM ATP, 30 minute preincubation, geometric mean, read-out: GSK3-B TR-FRET BIOCHEMICAL (TR-FRET), GMean, IC50
[4] = 1 nM GSK3α, 4 μM ATP, 30 minute preincubation, geometric mean, read-out: GSK3-A TR-FRET BIOCHEMICAL (TR-FRET), GMean, IC50
[5] = read-out: GSK3-B (TR-FRET 1 mM ATP), GMean, IC50, 1 mM ATP, geometric mean
[6] = read-out: GSK3-A (TR-FRET 1 mM ATP), GMean, IC50, 1 mM ATP, geometric mean
[7] = 1 nM GSK3b, 2 μM ATP, 30 minute preincubation, Table 16, read-out: GSK3-B TR-FRET BIOCHEMICAL (TR-FRET)
[8] = 1 nM GSK3α, 4 μM ATP, 30 minute preincubation, Table 16, read-out: GSK3-A TR-FRET BIOCHEMICAL (TR-FRET)
[9] = 1 nM GSK3b, 2 μM ATP, 30 minute preincubation, read-out: GSK3-B TR-FRET BIOCHEMICAL (TR-FRET), IC50
[10] = GSK3-B (TR-FRET 1 mM ATP), GMean, IC50, 1 mM ATP, geometric mean
[11] = 1 nM GSK3α, 4 μM ATP, 30 minute preincubation, read-out: GSK3-A TR-FRET BIOCHEMICAL (TR-FRET), IC50
[12] = GSK3-A (TR-FRET 1 mM ATP), GMean, IC50, 1 mM ATP, geometric mean

Chain of GSK3α (GST-full length GSK3α) (P49840 whole entry): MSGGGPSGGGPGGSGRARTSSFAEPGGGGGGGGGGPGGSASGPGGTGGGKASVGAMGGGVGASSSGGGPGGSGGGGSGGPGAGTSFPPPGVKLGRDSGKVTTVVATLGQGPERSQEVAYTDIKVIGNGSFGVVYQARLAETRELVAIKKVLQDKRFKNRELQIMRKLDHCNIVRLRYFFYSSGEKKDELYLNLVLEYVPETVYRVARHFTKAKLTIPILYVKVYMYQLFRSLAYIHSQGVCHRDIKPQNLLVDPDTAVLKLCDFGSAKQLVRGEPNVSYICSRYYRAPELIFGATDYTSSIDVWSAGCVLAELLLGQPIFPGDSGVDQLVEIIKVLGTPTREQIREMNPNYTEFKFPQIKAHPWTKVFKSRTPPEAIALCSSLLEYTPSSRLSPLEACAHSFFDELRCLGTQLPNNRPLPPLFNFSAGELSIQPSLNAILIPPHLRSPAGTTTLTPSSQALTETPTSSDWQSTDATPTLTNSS
Chain of GSK3b (GST-full length GSK3b) (P49841 whole entry): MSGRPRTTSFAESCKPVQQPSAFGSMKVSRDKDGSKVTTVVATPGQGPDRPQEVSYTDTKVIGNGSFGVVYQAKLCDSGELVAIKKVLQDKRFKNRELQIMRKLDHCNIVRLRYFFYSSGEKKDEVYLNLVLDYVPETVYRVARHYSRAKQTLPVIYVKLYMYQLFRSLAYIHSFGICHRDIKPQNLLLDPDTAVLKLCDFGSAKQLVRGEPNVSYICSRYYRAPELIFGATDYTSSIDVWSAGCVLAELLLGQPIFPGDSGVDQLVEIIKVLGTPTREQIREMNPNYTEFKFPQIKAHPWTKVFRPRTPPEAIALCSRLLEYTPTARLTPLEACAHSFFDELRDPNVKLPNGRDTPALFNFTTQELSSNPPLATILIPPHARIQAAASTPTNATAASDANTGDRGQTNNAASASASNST

IC50 [1, 3]	IC50 [2, 4]	Compound	also measured
> 5000 nM	> 5000 nM	CC[C@@]1(c2cccc(-c3ccnc4cc(Cl)ccc34)c2)C2=C(CC(C)(C)NC2=O)Nc2n[nH]cc21 [Compound 948362]	
> 5000 nM	1000 to 5000 nM	CCC1(c2cccc(-c3ccnn3C)c2)C2=C(CC3(CCCOC3)NC2=O)Nc2n[nH]cc21 (stereo not shown) [Compound 948366]	
> 5000 nM	100 to 1000 nM	CCC1(c2cccc(-c3ccncc3C)c2)C2=C(CC3(CCOCC3)NC2=O)Nc2n[nH]cc21 (stereo not shown) [Compound 948367]	
> 5000 nM	> 5000 nM	CC[C@@]1(c2cccc(-c3ccnc(C)c3Cl)c2)C2=C(CC(C)(C)NC2=O)Nc2n[nH]cc21 [Compound 948369]	
≤ 100 nM	≤ 100 nM	CC[C@]1(c2cccc(-c3c(F)cncc3Cl)c2)C2=C(CC(C)(C)NC2=O)Nc2n[nH]cc21 [Compound 948371]	IC50 [1, 5]: 100 to 1000 nM; IC50 [2, 6]: 100 to 1000 nM
100 to 1000 nM	≤ 100 nM	CCC1(c2cccc(C(F)(F)F)c2)C2=C(CCN(c3cncnc3)C2=O)Nc2n[nH]cc21 (stereo not shown) [Compound 948379]	IC50 [1, 5]: > 5000 nM; IC50 [2, 6]: 100 to 1000 nM
> 5000 nM	100 to 1000 nM	CCC1(c2cccc(C(F)(F)F)c2)C2=C(CCN(c3cncnc3)C2=O)Nc2n[nH]cc21 (stereo not shown) [Compound 948380]	
> 5000 nM	> 5000 nM	CCC1(c2cccc(-c3ccnc(C)c3)c2)C2=C(CC(C)(C)NC2=O)Nc2n[nH]c(C)c21 (stereo not shown) [Compound 948414]	
		Cc1cc([C@H]2CC[C@@]3(CC2)C2=C(CC(C)(C)CC2=O)Nc2n[nH]cc23)ccn1 [Compound 948415]	IC50 [1, 7]: ≤ 100 nM; IC50 [2, 8]: ≤ 100 nM
		Cc1cc([C@H]2CC[C@]3(CC2)C2=C(CC(C)(C)CC2=O)Nc2n[nH]cc23)ccn1 [Compound 948416]	IC50 [1, 7]: 100 to 1000 nM; IC50 [2, 8]: ≤ 100 nM
≤ 100 nM	≤ 100 nM	CC[C@]1(c2cccc(S(=O)(=O)C(C)C)c2)C2=C(CC(C)(C)NC2=O)Nc2n[nH]c(C(F)(F)F)c21 [Compound 948419]	IC50 [1, 5]: ≤ 100 nM; IC50 [2, 6]: ≤ 100 nM
100 to 1000 nM	100 to 1000 nM	CC[C@@]1(c2cccc(S(C)(=O)=O)c2)C2=C(CC(C)(C)NC2=O)Nc2n[nH]c(C(F)(F)F)c21 [Compound 948422]	
100 to 1000 nM	≤ 100 nM	CC[C@@]1(c2cccc(S(=O)(=O)C(C)C)c2)C2=C(CC(C)(C)NC2=O)Nc2n[nH]c(C(F)(F)F)c21 [Compound 948423]	
		CC(=O)N1C[C@]2(C[C@]3(CO2)C2=C(CC(C)(C)CC2=O)Nc2n[nH]cc23)[C@H]1C [Compound 948437]	IC50 [1, 9]: ≤ 100 nM; IC50 [1, 10]: ≤ 100 nM; IC50 [2, 11]: ≤ 100 nM; IC50 [2, 12]: ≤ 100 nM
		CC(=O)N1C[C@@]2(C[C@]3(CO2)C2=C(CC(C)(C)CC2=O)Nc2n[nH]cc23)[C@@H]1C [Compound 948438]	IC50 [1, 9]: ≤ 100 nM; IC50 [2, 11]: ≤ 100 nM
		CC(=O)N1C[C@]2(C[C@@]3(CO2)C2=C(CC(C)(C)CC2=O)Nc2n[nH]cc23)[C@H]1C [Compound 948439]	IC50 [1, 9]: ≤ 100 nM; IC50 [1, 10]: ≤ 100 nM; IC50 [2, 11]: ≤ 100 nM; IC50 [2, 12]: ≤ 100 nM
		CC(=O)N1C[C@@]2(C[C@@]3(CO2)C2=C(CC(C)(C)CC2=O)Nc2n[nH]cc23)[C@@H]1C [Compound 948440]	IC50 [1, 9]: ≤ 100 nM; IC50 [2, 11]: ≤ 100 nM
> 5000 nM	> 5000 nM	CCC1(c2cccc(-c3ccnc(C)c3)c2)C2=C(CC(C)(COC)NC2=O)Nc2n[nH]cc21 (stereo not shown) [Compound 948493]	
≤ 100 nM	≤ 100 nM	CC[C@]1(c2cccc(-c3ccncc3C)c2)C2=C(CC3(CCC3)NC2=O)Nc2n[nH]cc21 [Compound 948512]	IC50 [1, 5]: 1000 to 5000 nM; IC50 [2, 6]: 100 to 1000 nM
100 to 1000 nM	≤ 100 nM	CC[C@]1(c2cccc(-c3ccnc(C)c3)c2)C2=C(CC3(CCOCC3)NC2=O)Nc2n[nH]c(C)c21 [Compound 948513]	
> 5000 nM	1000 to 5000 nM	CCC1(c2cccc(-c3c(F)cncc3F)c2)C2=C(CC(C)(C)NC2=O)Nc2n[nH]cc21 (stereo not shown) [Compound 948514]	
≤ 100 nM	≤ 100 nM	CCC1(c2cccc(-c3c(Cl)cncc3Cl)c2)C2=C(CC(C)(C)NC2=O)Nc2n[nH]cc21 (stereo not shown) [Compound 948515]	IC50 [1, 5]: 100 to 1000 nM; IC50 [2, 6]: ≤ 100 nM

IC50 [1, 3]	IC50 [2, 4]	Compound	also measured
100 to 1000 nM	≤ 100 nM	CCC1(c2cccc(-c3ccnn3C)c2)C2=C(CC3(CCOCC3)NC2=O)Nc2n[nH]cc21 (stereo not shown) [Compound 948516]	
≤ 100 nM	≤ 100 nM	CC[C@]1(c2cccc(-c3ccnc4ccc(Cl)cc34)c2)C2=C(CC(C)(C)N(C)C2=O)Nc2n[nH]cc21 [Compound 948517]	
> 5000 nM	> 5000 nM	CC[C@@]1(c2cccc(-c3ccnc4ccc(OC)cc34)c2)C2=C(CC(C)(C)NC2=O)Nc2n[nH]cc21 [Compound 948518]	
> 5000 nM	> 5000 nM	CC[C@@]1(c2cccc(-c3ccnc4cc(F)ccc34)c2)C2=C(CC(C)(C)NC2=O)Nc2n[nH]cc21 [Compound 948519]	
1000 to 5000 nM	100 to 1000 nM	CCC1(c2cccc(-c3ccnc(OC)c3F)c2)C2=C(CC(C)(C)NC2=O)Nc2n[nH]cc21 (stereo not shown) [Compound 948520]	
1000 to 5000 nM	≤ 100 nM	CCC1(c2cccc(-c3ccnc(C)c3)c2)C2=C(CC(C)(COC)NC2=O)Nc2n[nH]cc21 (stereo not shown) [Compound 948521]	
> 5000 nM	100 to 1000 nM	CCC1(c2cccc(-c3ccnn3C)c2)C2=C(CC3(CCC3)NC2=O)Nc2n[nH]cc21 (stereo not shown) [Compound 948522]	
100 to 1000 nM	≤ 100 nM	CCC1(c2cccc(-c3ccncc3C)c2)C2=C(CC3(CCC3)NC2=O)Nc2n[nH]cc21 (stereo not shown) [Compound 948523]	
> 5000 nM	1000 to 5000 nM	CCC1(c2cccc(-c3ccnc(C)c3)c2)C2=C(CC3(CCOCC3)NC2=O)Nc2n[nH]cc21 (stereo not shown) [Compound 948524]	
> 5000 nM	1000 to 5000 nM	CC[C@]1(c2cccc(-c3ccnn3C)c2)C2=C(CC3(CCOCC3)NC2=O)Nc2n[nH]cc21 [Compound 948526]	
100 to 1000 nM	≤ 100 nM	CC[C@]1(c2cccc(-c3ccnc4cc(F)ccc34)c2)C2=C(CC(C)(C)NC2=O)Nc2n[nH]cc21 [Compound 948528]	
		CCC1(c2cccc(-c3c(F)cncc3OC)c2)C2=C(Nc3n[nH]cc31)C(F)C(C)(C)CC2=O (stereo not shown) [Compound 948545, 4-ethyl-8-fluoro-4-(3-(3-fluoro-5-methoxypyridin-4-yl)phenyl)-7,7-dimethyl-2,4,6,7,8,9-hexahydro-SH-pyrazolo[3,4-b]quinolin-5-one]	IC50 [1, 7]: ≤ 100 nM; IC50 [1, 5]: 100 to 1000 nM; IC50 [2, 8]: ≤ 100 nM; IC50 [2, 6]: ≤ 100 nM
		CCC1(c2cccc(-c3c(F)cncc3OC)c2)C2=C(Nc3n[nH]cc31)C(F)C(C)(C)CC2=O (stereo not shown) [Compound 948547, 4-ethyl-8-fluoro-4-(3-(3-fluoro-5-methoxypyridin-4-yl)phenyl)-7,7-dimethyl-2,4,6,7,8,9-hexahydro-SH-pyrazolo[3,4-b]quinolin-5-one]	IC50 [1, 7]: ≤ 100 nM; IC50 [1, 5]: 1000 to 5000 nM; IC50 [2, 8]: ≤ 100 nM; IC50 [2, 6]: 100 to 1000 nM
		CCC1(c2cccc(-c3c(F)cncc3OC)c2)C2=C(Nc3n[nH]cc31)C(F)C(C)(C)CC2=O (stereo not shown) [Compound 948548, 4-ethyl-8-fluoro-4-(3-(3-fluoro-5-methoxypyridin-4-yl)phenyl)-7,7-dimethyl-2,4,6,7,8,9-hexahydro-SH-pyrazolo[3,4-b]quinolin-5-one]	IC50 [1, 7]: 100 to 1000 nM; IC50 [2, 8]: ≤ 100 nM
		CCC1(c2cccc(-c3c(F)cncc3OC)c2)C2=C(CN(Cc3ccccc3)C2=O)Nc2n[nH]cc21 (stereo not shown) [Compound 948550]	IC50 [1, 9]: 100 to 1000 nM; IC50 [2, 11]: ≤ 100 nM
		CCC1(c2cccc(-c3ccnc4c3CCCC4)c2)C2=C(CN(Cc3ccccc3)C2=O)Nc2n[nH]cc21 (stereo not shown) [Compound 948551]	IC50 [1, 9]: 100 to 1000 nM; IC50 [2, 11]: ≤ 100 nM
		CC[C@]1(c2cccc(-c3ccnc4c3CCCC4)c2)C2=C(CN(Cc3ccccc3)C2=O)Nc2n[nH]cc21 [Compound 948552]	IC50 [1, 9]: > 5000 nM; IC50 [2, 11]: 100 to 1000 nM
		CCC1(c2cccc(C(F)(F)C(F)(F)F)c2)C2=C(CC(C)(C)CC2=O)Nc2n[nH]cc21 (stereo not shown) [Compound 948615]	IC50 [1, 7]: ≤ 100 nM; IC50 [2, 8]: ≤ 100 nM
> 5000 nM	> 5000 nM	CCC1(c2cccc(-c3ccnc4cc(F)c(F)cc34)c2)C2=C(CC(C)(C)NC2=O)Nc2n[nH]cc21 (stereo not shown) [Compound 948638]	
100 to 1000 nM	≤ 100 nM	CCc1cnccc1-c1cccc([C@]2(CC)C3=C(CC(C)(C)NC3=O)Nc3n[nH]cc32)c1 [Compound 948639]	
> 5000 nM	> 5000 nM	CCC1(c2cccc(-c3ccnc(C)c3)c2)C2=C(CC3(CCCC3)NC2=O)Nc2n[nH]cc21 (stereo not shown) [Compound 948641]	
1000 to 5000 nM	100 to 1000 nM	CC[C@@]1(c2cccc(-c3ccncc3C3CC3)c2)C2=C(CC(C)(C)NC2=O)Nc2n[nH]cc21 [Compound 948642]	
